Results from ChEMBL document CHEMBL1909046, “DrugMatrix in vitro pharmacology data”.

Legend:
[1] = DRUGMATRIX: Leukotriene, BLT (LTB4) radioligand binding (ligand: [3H]LTB4); assay type: cell membranes, Membrane; settings: u-937; Not Active = under 50% inhibition at 10 µM
[2] = molecular target: T1, Alpha-1A adrenergic receptor (Rattus norvegicus, UniProt P43140); assay: DRUGMATRIX: Alpha-1A adrenergic receptor radioligand binding (ligand: prazosin); assay type: cell membranes, Wistar, Submaxillary gland, Membrane; settings: Not Active = under 50% inhibition at 10 µM
T1 sequence (P43140 whole entry): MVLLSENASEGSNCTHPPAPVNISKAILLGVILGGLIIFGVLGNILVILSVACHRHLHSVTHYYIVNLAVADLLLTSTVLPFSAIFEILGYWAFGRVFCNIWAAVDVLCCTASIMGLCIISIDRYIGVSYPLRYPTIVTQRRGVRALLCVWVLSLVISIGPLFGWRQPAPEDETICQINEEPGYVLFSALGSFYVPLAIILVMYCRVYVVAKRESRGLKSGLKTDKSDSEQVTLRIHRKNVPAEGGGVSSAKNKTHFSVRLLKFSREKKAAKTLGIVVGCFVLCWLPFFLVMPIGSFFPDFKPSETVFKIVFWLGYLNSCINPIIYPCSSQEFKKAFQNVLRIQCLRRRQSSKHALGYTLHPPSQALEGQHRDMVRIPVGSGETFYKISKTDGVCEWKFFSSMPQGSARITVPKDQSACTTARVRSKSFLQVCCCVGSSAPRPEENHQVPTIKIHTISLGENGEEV

[3] = molecular target: T2, Amine oxidase [flavin-containing] A (Homo sapiens, UniProt P21397); assay: DRUGMATRIX: Monoamine Oxidase MAO-A enzyme inhibition (substrate: Kynuramine); design: species or system BTI-TN-5B1-4; settings: bti-tn-5b1-4; Not Active = under 50% inhibition at 10 µM
T2 sequence (P21397 whole entry): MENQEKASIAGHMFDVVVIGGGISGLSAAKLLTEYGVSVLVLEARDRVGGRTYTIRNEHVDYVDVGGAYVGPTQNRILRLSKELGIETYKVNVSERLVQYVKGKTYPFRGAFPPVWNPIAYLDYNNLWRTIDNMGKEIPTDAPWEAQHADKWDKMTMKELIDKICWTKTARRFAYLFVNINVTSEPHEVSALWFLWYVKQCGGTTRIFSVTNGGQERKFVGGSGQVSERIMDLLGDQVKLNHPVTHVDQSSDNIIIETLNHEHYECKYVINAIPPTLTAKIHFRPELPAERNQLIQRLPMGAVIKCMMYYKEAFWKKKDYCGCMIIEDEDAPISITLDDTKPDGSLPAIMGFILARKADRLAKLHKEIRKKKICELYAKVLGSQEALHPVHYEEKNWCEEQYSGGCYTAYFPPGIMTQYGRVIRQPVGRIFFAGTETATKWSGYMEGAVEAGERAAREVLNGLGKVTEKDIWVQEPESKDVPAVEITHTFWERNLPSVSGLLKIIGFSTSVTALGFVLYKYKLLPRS

[4] = molecular target: C-C chemokine receptor type 5 (Homo sapiens, UniProt P51681); assay type: cell membranes, Membrane; settings: hek293; also: in other assays of this panel Not Active means under 50% inhibition at 10 µM
[5] = molecular target: Mitogen-activated protein kinase 3 (Homo sapiens, UniProt P27361); assay: DRUGMATRIX: Protein Serine/Threonine Kinase, ERK1 enzyme inhibition (substrate: Myelin Basic Protein); design: species or system Escherichia coli; settings: Not Active = under 50% inhibition at 10 µM
Progesterone receptor = molecular target: T3, Progesterone receptor (Bos taurus, UniProt Q690N0); assay: DRUGMATRIX: Progesterone radioligand binding (ligand: [3H] R-5020); assay type: tissue-based, Uterus; settings: Not Active = under 50% inhibition at 10 µM
T3 sequence (Q690N0 whole entry): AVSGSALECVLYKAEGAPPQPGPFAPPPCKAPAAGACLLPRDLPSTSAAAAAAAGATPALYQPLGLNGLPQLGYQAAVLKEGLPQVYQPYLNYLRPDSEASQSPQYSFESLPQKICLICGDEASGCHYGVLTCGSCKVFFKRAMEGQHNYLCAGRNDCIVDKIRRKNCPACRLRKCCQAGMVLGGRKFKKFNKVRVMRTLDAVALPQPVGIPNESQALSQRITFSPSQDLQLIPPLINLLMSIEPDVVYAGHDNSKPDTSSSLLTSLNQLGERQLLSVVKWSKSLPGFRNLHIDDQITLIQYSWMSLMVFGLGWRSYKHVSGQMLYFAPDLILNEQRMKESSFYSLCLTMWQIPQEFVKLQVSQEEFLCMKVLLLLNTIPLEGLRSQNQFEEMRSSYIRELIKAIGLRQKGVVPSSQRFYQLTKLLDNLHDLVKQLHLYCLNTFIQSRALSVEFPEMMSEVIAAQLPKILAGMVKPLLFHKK

Adenosine receptor A2a = Adenosine receptor A2a (Homo sapiens, UniProt P29274); assay: DRUGMATRIX: Adenosine A2A radioligand binding (ligand: […]); assay type: cell membranes, HEK293, Membrane; settings: hek293; Not Active = under 50% inhibition at 10 µM
[6] = molecular target: T4, 5-hydroxytryptamine receptor 2C (Homo sapiens, UniProt P28335); assay: DRUGMATRIX: Serotonin (5-Hydroxytryptamine) 5-HT2C radioligand binding (ligand: [3H] Mesulergine); assay type: cell membranes, CHO-K1, Membrane; settings: cho-k1; Not Active = under 50% inhibition at 10 µM
T4 sequence (P28335 whole entry): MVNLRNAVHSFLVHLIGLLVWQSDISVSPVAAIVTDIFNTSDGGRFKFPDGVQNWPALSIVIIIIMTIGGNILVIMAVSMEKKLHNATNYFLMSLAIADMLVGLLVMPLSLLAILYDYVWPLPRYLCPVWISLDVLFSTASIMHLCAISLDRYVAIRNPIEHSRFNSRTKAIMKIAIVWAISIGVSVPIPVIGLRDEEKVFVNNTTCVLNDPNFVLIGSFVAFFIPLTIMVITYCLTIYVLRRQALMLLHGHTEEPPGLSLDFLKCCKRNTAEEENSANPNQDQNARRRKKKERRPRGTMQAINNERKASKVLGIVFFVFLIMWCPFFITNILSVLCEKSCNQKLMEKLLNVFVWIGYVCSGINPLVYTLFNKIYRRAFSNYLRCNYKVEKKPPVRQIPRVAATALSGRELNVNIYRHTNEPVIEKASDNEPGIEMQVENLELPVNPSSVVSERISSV

[7] = DRUGMATRIX: Calcium Channel Type L, Dihydropyridine radioligand binding (ligand: [3H] Nitrendipine); assay type: cell membranes, Rattus norvegicus, Wistar, Cerebral cortex, Membrane; settings: Not Active = under 50% inhibition at 10 µM
[8] = molecular target: T5, Neuropeptide Y receptor type 2 (Homo sapiens, UniProt P49146); assay type: cell membranes, Membrane; settings: kan-ts; also: in other assays of this panel Not Active means under 50% inhibition at 10 µM
T5 sequence (P49146 whole entry): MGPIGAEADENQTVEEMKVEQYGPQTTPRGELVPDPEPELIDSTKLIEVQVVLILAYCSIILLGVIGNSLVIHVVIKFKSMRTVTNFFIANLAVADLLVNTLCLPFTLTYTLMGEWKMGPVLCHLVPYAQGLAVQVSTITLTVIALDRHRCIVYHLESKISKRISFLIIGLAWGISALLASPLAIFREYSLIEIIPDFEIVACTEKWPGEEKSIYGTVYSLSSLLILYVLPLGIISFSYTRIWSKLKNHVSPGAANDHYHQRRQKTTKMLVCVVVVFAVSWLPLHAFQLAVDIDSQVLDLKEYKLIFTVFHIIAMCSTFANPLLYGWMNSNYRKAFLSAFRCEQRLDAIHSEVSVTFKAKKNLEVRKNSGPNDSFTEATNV

Sequence of Mitogen-activated protein kinase 3 (P27361 whole entry): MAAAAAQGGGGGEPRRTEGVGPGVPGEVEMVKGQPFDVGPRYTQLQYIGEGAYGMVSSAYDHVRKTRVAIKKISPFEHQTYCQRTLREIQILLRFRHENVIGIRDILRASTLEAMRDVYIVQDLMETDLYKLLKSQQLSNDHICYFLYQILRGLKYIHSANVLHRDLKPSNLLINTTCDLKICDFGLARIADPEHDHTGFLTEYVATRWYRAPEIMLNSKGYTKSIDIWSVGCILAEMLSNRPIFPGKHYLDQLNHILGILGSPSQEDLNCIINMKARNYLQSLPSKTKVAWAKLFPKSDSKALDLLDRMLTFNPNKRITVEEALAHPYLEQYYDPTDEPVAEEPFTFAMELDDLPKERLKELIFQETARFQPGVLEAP
Sequence of Adenosine receptor A2a (P29274 whole entry): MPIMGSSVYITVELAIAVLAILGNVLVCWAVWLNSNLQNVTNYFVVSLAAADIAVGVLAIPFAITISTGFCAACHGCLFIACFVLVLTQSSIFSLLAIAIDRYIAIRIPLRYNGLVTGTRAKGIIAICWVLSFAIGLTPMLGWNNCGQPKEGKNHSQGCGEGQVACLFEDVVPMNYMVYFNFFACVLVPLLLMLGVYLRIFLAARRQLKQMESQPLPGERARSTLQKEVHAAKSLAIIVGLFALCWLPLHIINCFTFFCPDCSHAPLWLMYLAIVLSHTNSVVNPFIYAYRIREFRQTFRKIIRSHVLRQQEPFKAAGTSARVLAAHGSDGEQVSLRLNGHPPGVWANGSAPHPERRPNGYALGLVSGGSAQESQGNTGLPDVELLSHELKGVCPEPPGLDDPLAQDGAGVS
Sequence of C-C chemokine receptor type 5 (P51681 whole entry): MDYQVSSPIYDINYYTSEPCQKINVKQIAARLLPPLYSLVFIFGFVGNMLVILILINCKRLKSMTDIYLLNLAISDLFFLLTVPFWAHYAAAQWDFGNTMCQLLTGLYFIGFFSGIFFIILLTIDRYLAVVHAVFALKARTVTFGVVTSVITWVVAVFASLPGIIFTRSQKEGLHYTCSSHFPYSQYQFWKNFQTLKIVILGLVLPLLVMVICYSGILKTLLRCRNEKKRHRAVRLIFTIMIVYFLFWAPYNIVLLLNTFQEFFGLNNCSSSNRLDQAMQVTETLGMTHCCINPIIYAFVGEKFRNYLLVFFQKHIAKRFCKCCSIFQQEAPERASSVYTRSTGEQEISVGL

CC(C)(C)NCC(O)c1cc(O)cc(O)c1 (stereo not drawn) [TERBUTALINE]
Not Active: IC50 [1] | Ki [1] | IC50 [2] | IC50 [3] | IC50 [4] | IC50 [5] | IC50 (Progesterone receptor) | IC50 (Adenosine receptor A2a) | IC50 [6] | IC50 [7] | Ki [7] | IC50 [8]

CN(C)[C@@H]1C(O)=C(C(N)=O)C(=O)[C@@]2(O)C(O)=C3C(=O)c4c(O)cccc4[C@@](C)(O)[C@H]3C[C@@H]12 [TETRACYCLINE]
Not Active: IC50 [1] | Ki [1] | IC50 [2] | IC50 [3] | IC50 [4] | IC50 [5] | IC50 (Progesterone receptor) | IC50 (Adenosine receptor A2a) | IC50 [6] | IC50 [7] | Ki [7] | IC50 [8]

c1ccc2[nH]c(-c3cscn3)nc2c1 [THIABENDAZOLE]
Not Active: IC50 [1] | Ki [1] | IC50 [2] | IC50 [3] | IC50 [4] | IC50 [5] | IC50 (Progesterone receptor) | IC50 (Adenosine receptor A2a) | IC50 [6] | IC50 [7] | Ki [7] | IC50 [8]

Cc1ccc(C(=O)C(C)CN2CCCCC2)cc1 (stereo not drawn) [TOLPERISONE]
Not Active: IC50 [1] | Ki [1] | IC50 [2] | IC50 [3] | IC50 [4] | IC50 [5] | IC50 (Progesterone receptor) | IC50 (Adenosine receptor A2a) | IC50 [6] | IC50 [7] | Ki [7] | IC50 [8]

NC(CO)(CO)CO [TROMETHAMINE]
Not Active: IC50 [1] | Ki [1] | IC50 [2] | IC50 [3] | IC50 [4] | IC50 [5] | IC50 (Progesterone receptor) | IC50 (Adenosine receptor A2a) | IC50 [6] | IC50 [7] | Ki [7] | IC50 [8]

COc1cc(C(=O)NC2CCCNC2)cc(OC)c1OC (stereo not drawn) [TROXIPIDE]
Not Active: IC50 [1] | Ki [1] | IC50 [2] | IC50 [3] | IC50 [4] | IC50 [5] | IC50 (Progesterone receptor) | IC50 (Adenosine receptor A2a) | IC50 [6] | IC50 [7] | Ki [7] | IC50 [8]

CC(C)[C@H](N)C(=O)OCCOCn1cnc2c(=O)nc(N)[nH]c21 [VALACYCLOVIR]
Not Active: IC50 [1] | Ki [1] | IC50 [2] | IC50 [3] | IC50 [4] | IC50 [5] | IC50 (Progesterone receptor) | IC50 (Adenosine receptor A2a) | IC50 [6] | IC50 [7] | Ki [7] | IC50 [8]

CN[C@H](CC(C)C)C(=O)N[C@H]1C(=O)N[C@@H](CC(N)=O)C(=O)N[C@H]2C(=O)N[C@H]3C(=O)N[C@H](C(=O)N[C@H](C(=O)O)c4cc(O)cc(O)c4-c4cc3ccc4O)[C@H](O)c3ccc(c(Cl)c3)Oc3cc2cc(c3O[C@@H]2O[C@H](CO)[C@@H](O)[C@H](O)[C@H]2O[C@H]2C[C@](C)(N)[C@H](O)[C@H](C)O2)Oc2ccc(cc2Cl)[C@H]1O [VANCOMYCIN]
Not Active: IC50 [1] | Ki [1] | IC50 [2] | IC50 [3] | IC50 [4] | IC50 [5] | IC50 (Progesterone receptor) | IC50 (Adenosine receptor A2a) | IC50 [6] | IC50 [7] | Ki [7] | IC50 [8]

COc1ccc(C(CN(C)C)C2(O)CCCCC2)cc1 (stereo not drawn) [VENLAFAXINE]
Not Active: IC50 [1] | Ki [1] | IC50 [2] | IC50 [3] | IC50 [4] | IC50 [5] | IC50 (Progesterone receptor) | IC50 (Adenosine receptor A2a) | IC50 [6] | IC50 [7] | Ki [7] | IC50 [8]

IVERMECTIN
Not Active: IC50 [1] | Ki [1] | IC50 [2] | Ki [2] | IC50 [3] | Ki [3] | IC50 [4] | Ki [4] | IC50 [5] | Ki [5] | IC50 (Progesterone receptor) | Ki (Progesterone receptor) | IC50 (Adenosine receptor A2a) | Ki (Adenosine receptor A2a) | IC50 [6] | Ki [6] | IC50 [7] | Ki [7] | IC50 [8] | Ki [8]
